Experiments:
[1] = test system: peripheral blood mono nuclear cells (PBMCs); assay: IL-6 in PBMC culture supernatant by ELISA; assay type: cell-based; settings: 24 hours
Description: To evaluate the efficacy of TLR-7 agonists, Compound 1 (TLR7-TA), Compound 2 (TLR7-1B) and Compound 3 (TLR7-1C) were treated with peripheral blood mono nuclear cells (PBMCs) for 24 hours. TLR7-1 was used as control. Cell culture supernatant was isolated and tested for IL-6 using enzyme-linked immunosorbent assay (ELISA) (FIG. 22).

[2] = test system: human primary monocyte-derived M2-macrophages; assay: IL-6 and CXCL-10 induction in monocyte-derived M2-macrophages; assay type: cell-based; settings: 48 hours

Nc1nc2ncc(CNc3ccc(C(=O)NC(CCC(=O)N[C@@H](CSSCCOC(=O)OCC4CCCN(CCNc5ccc(Cn6c(=O)[nH]c7c(N)nc(C(F)(F)F)cc76)cn5)C4)C(=O)O)C(=O)O)cc3)nc2c(=O)[nH]1 (stereo partly shown) [Compound 3]
IL-6 in culture supernatant [1]: increased expression of IL-6 | CXCL-10 induction compared to parent compound TLR7-1 [2]: more efficiently | IL-6 induction compared to parent compound TLR7-1 [2]: more efficiently | macrophage polarization (M1 markers IL-6, CXCL10) [2]: polarize the M2 macrophages to M1 macrophages
